The values below are quoted from earlier work in patent US20060183897A1, “Biaryl substituted triazoles as sodium channel blockers” (priority 2003, published 2006).

Data set [1] has as its system patients with peripheral nerve injury. The conditions noted are these: continuous infusion; placebo-controlled.
In data set [2] the test system is postherpetic neuralgia (PHN). The conditions noted are these: intravenous.
The subject of data set [3] is rat models of peripheral nerve injury. The conditions noted are these: intravenous application; concentrations that do not affect general behavior and motor function.

As for `CCN(CC)CC(=O)Nc1c(C)cccc1C` [lidocaine], in data set [1], the pain scores entry is reported as “reduced pain scores”. Further, the “pain intensity associated with postherpetic neuralgia” value in data set [2] is given as “reduced pain intensity”. Further, in data set [3], the “ectopic activity in the injured nerve” value was “suppress the ectopic activity” and the tactile allodynia result is reported as “reverse the tactile allodynia”.
